According to the Kinase Knowledgebase extract (Sharma et al. 2016):

Molecular target: PIK3CA (human) (UniProt P42336)
Test: Assessment of PIK3CA Kinase Activity

PIK3CA (human), sequence (P42336 whole entry, looked up): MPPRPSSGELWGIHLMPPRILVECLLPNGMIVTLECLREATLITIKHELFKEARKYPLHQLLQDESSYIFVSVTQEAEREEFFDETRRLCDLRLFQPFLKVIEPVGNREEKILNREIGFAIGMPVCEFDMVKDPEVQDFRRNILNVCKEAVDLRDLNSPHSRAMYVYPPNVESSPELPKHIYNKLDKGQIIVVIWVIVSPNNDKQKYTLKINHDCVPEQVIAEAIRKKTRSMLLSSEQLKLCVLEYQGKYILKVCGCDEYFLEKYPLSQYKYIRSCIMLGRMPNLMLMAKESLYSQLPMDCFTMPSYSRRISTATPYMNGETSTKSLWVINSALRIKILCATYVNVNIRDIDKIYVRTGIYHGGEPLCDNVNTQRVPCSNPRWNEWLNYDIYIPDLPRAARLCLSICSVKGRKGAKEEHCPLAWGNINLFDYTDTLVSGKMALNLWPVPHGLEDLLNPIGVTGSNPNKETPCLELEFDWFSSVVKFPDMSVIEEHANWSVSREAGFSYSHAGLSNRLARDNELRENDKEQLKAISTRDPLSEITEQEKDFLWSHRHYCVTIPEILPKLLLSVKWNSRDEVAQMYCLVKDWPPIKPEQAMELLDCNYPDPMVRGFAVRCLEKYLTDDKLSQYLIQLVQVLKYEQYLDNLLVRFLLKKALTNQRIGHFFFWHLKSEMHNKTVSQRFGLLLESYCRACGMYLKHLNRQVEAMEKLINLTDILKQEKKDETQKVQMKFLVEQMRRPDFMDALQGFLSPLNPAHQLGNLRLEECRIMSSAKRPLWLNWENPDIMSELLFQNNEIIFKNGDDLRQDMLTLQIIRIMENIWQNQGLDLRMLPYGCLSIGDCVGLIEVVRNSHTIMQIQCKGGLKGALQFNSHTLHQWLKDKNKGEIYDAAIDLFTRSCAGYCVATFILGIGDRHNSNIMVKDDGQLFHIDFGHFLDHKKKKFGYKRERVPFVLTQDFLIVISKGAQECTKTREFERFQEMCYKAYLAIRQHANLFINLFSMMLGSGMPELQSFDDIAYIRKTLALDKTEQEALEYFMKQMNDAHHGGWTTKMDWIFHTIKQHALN

IC50, < 1000 nM:
CC(C)NC(=O)CN1CCC(c2ccc3c(c2)OCCn2cc(-c4ncnn4C(C)C)nc2-3)CC1
CC(C)n1ncnc1-c1cn2c(n1)-c1ccc(C3CN(CC(N)=O)C3)cc1OCC2
CC(C)n1ncnc1-c1cn2c(n1)-c1ccc(O)cc1OCC2
CC(C)n1ncnc1-c1cn2c(n1)-c1ccc(O[C@@H](C)C(=O)O)cc1OCC2
CC(C)n1ncnc1-c1cn2c(n1)-c1cnc(N3CCC[C@@]3(C)C(N)=O)cc1OCC2
CC(C)n1ncnc1-c1cn2c(n1)-c1ccc(N)cc1OCC2
Fc1ccc(-n2ncnc2-c2cn3c(n2)-c2cnc(NCCCn4ccnc4)cc2OCC3)c(F)c1
CC(C)(CO)NC(=O)c1ccc2c(c1)-c1nc(-c3ncnn3-c3ccc(F)cc3F)cn1CCO2
COC(=O)c1ccc2c(c1)OCCn1cc(-c3cccc(C(C)C)c3)nc1-2
CC(C)n1nc(N)nc1-c1cn2c(n1)-c1cc(C(F)(F)F)ccc1OCC2
CC(C)n1ncnc1-c1cn2c(n1)-c1cnc(NCC(O)c3nccn3C)cc1OCC2 (centres undefined)
Cc1nc(-c2cn3c(n2)-c2cc(-c4ccc[nH]c4=O)ccc2OCC3)n(C(C)C)n1
CC[C@@H](Oc1ccc2c(c1)OCCn1cc(-c3ncnn3CC(F)(F)F)nc1-2)C(N)=O
CC(C)n1ncnc1-c1cc2n(n1)-c1cc(C3CN(C(=O)CO)C3)ccc1OCC2
Cc1nc(-c2cn3c(n2)-c2ccc(CCC(N)=O)cc2OCC3)n(C(C)C)n1
CC(C)n1ncnc1-c1cn2c(n1)-c1cnc(N)cc1OCC2
CC(C)n1ncnc1-c1cn2c(n1)-c1cnc(OCC(N)=O)cc1OCC2
CC(C)n1ncnc1-c1cn2c(n1)-c1ccc(CC(N)=O)cc1OCC2
Nc1ccc2c(c1)OCCn1cc(-c3ncnn3CC(F)(F)F)nc1-2
CC(C)n1nc(N)nc1-c1cn2c(n1)-c1cc(F)ccc1OCC2
NC(=O)C1CC1c1ccc2c(c1)OCCn1cc(-c3ncnn3CC(F)(F)F)nc1-2 (centres undefined)
Cc1nc(-c2cn3c(n2)-c2cnc(N4C[C@@H](O)C[C@H]4C(N)=O)cc2OCC3)n(C(C)C)n1
C[C@H](Oc1ccc2c(c1)OCCn1cc(-c3ncnn3C(C)(C)C)nc1-2)C(N)=O
CC(C)n1ncnc1-c1cn2c(n1)-c1cc(C(=O)N3CCS(=O)(=O)CC3)ccc1OCC2
CC(CO)Nc1cc2c(cn1)-c1nc(-c3ncnn3CC(F)(F)F)cn1CCO2 (centres undefined)
Cc1ccc2c(c1)OCCn1cc(-c3nc(C)nn3C(C)C)nc1-2
CC(C)n1ncnc1-c1cn2c(n1)-c1ccc(C3CN(CCS(C)(=O)=O)C3)cc1OCC2
CC(C)n1ncnc1-n1cc2c(n1)-c1ccc(-c3cn[nH]c3)cc1OCC2
CC(C)n1ncnc1-c1cn2c(n1)-c1ccc([C@H]3CCNC[C@@H]3O)cc1OCC2
CCOc1ccc2c(c1)OCCn1cc(-c3ncnn3C(C)C)nc1-2
CC(C)n1ncnc1-c1cn2c(n1)-c1ccc(C3CCOCC3)cc1OCC2
CC(C)n1ncnc1-c1cc2n(n1)-c1cc(C3CN(CCS(C)(=O)=O)C3)ccc1OCC2
COCc1nc(-c2cn3c(n2)-c2ccccc2OCC3)n(C(C)C)n1
Cc1nc(-c2cn3c(n2)-c2cnc(N4C[C@H](O)C[C@H]4C(N)=O)cc2OCC3)n(C(C)C)n1
CC(C)n1ncnc1-c1cn2c(n1)-c1ccc(C3CCN(CC(=O)N(C)C)CC3O)cc1OCC2 (centres undefined)
CC(C)n1ncnc1-c1cn2c(n1)-c1cc(-c3ccccc3)ccc1OCC2
CC(C)n1ncnc1-c1cn2c(n1)-c1cc(-c3ccc[nH]c3=O)ncc1OCC2
CS(=O)(=O)CCN1CCC(CO)(c2ccc3c(c2)-c2nn(-c4ncnn4-c4ccc(F)cc4F)cc2CCO3)CC1
CC[C@H](Oc1ccc2c(c1)OCCn1cc(-c3ncnn3CC(F)(F)F)nc1-2)C(N)=O
CC(C)n1nc(CO)nc1-c1cn2c(n1)-c1cnc(N(C)C)cc1OCC2
Cc1ncc(-c2ccc3c(c2)OCCn2cc(-c4ncnn4C(C)C)nc2-3)[nH]1
CC(C)n1ncnc1-c1cn2c(n1)-c1cnc(NCc3ccn[nH]3)cc1OCC2
CCCC(Oc1ccc2c(c1)OCCn1cc(-c3ncnn3C(C)C)nc1-2)C(N)=O (centres undefined)
CC(C)(Oc1ccc2c(c1)OCCn1cc(-c3ncnn3CC(F)(F)F)nc1-2)C(N)=O
Cc1nc(-c2cn3c(n2)-c2cnc(N4C[C@H](F)C[C@H]4C(N)=O)cc2OCC3)n(C(C)C)n1
c1cn(CCN2CCOCC2)c(-c2cn3c(n2)-c2cc(-c4cn[nH]c4)ccc2OCC3)n1
C[C@@H](Oc1ccc2c(c1)OCCn1cc(-c3ncnn3CC(F)(F)F)nc1-2)C(N)=O
CC(C)n1ncnc1-c1cn2c(n1)-c1cnc(N3C[C@H](O)C[C@H]3C(N)=O)cc1OCC2
CC(C)n1ncnc1-c1cn2c(n1)-c1ccc(Br)cc1OCC2
CC(C)n1ncnc1-c1cn2c(n1)-c1ccc(C(=O)NO)cc1OCC2
CC(C)n1ncnc1-c1cc2n(n1)-c1cc(C3CN(CCO)C3)ccc1OCC2
CC(C)n1ncnc1-c1cn2c(n1)-c1ccc(OCC(F)(F)F)cc1OCC2
Cc1nc(-c2cn3c(n2)-c2ccc(OC(C)C)cc2OCC3)n(C(C)C)n1
CC(C)n1ncnc1-n1cc2c(n1)-c1ccc(Br)cc1OCC2
CNc1ccc2c(n1)OCCn1cc(-c3ncnn3C(C)C)nc1-2
CC(C)n1ncnc1-c1cn2c(n1)-c1cnc(N3C[C@@H](O)C[C@H]3C(N)=O)cc1OCC2
COc1ccc2c(c1)OCCn1cc(-c3nc(C)nn3C(C)C)nc1-2
CNC(=O)CN1CCC(c2ccc3c(c2)OCCn2cc(-c4ncnn4C(C)C)nc2-3)CC1
CC(C)n1ncnc1-c1cc2n(n1)-c1cc(C3CN(Cc4ccncc4)C3)ccc1OCC2
Cc1nc(-c2cn3c(n2)-c2cc(-c4cnn(C)c4)ccc2OCC3)n(C(C)C)n1
CC(C)n1ncnc1-c1cc2n(n1)-c1cc(C(=O)NCC(C)(C)O)ccc1OCC2
CC(C)n1ncnc1-c1cc2n(n1)-c1cc(C3CNC3)ccc1OCC2
CC(C)n1ncnc1-c1cn2c(n1)-c1cc(C(F)F)ncc1OCC2
CC(C)Oc1ccc2c(c1)OCCn1cc(-c3ncnn3C(C)C)nc1-2
